# Source: PMC2248166, “Quantitative peptide binding motifs for 19 human and mouse MHC class I molecules derived using positional scanning combinatorial peptide libraries” (Immunome Research, 2008)
# Key:
# HLA B*2705 = HLA B*2705 (Homo sapiens, UniProt P01889, D138H/D201E/E176V/E204Q/G107R/H137Y/K202T/N104T/N87E/Q56L/Q94K/R106L/R155S/R180L/S101D/S121N/S48T/Y140D/Y33H/Y91C); type: binding; conditions: positional scanning combinatorial 9-mer library; normalized to 1.0 for the best residue at each position
# H-2 D^d = H-2 D^d (Mus musculus, UniProt P01900); type: binding
# HLA B*1503 = HLA B*1503 (Homo sapiens, UniProt P01889, A329T/A93T/A95T/C349S/D201E/D98Y/E187L/E204Q/K202T/N87E/Q94N/R155S/R180L/S121R/S35A/V306I/V36M/Y140S/Y91S); assay: biochemical; type: binding
# HLA A*6802 = HLA A*6802 (Homo sapiens, UniProt P04439, A269V/D140Y/D185E/E176V/E277Q/E87N/F33Y/G231S/I121R/I166T/I218V/L180W/L300P/L318F/N151K/P208A/P217A/Q86R/R138H/R169H/S129P/T345S/V36M); type: binding
# HLA A*0201 = HLA A*0201 (Homo sapiens, UniProt P04439, D140Y/D185E/D98H/E176V/E277Q/G131W/G231S/I119V/I121R/I166T/I218V/L300P/L318F/N151K/N90K/P208A/P217A/Q86G/Q94H/R138H/R169H/T345S); conditions: positional scanning combinatorial 9-mer library; normalized to 1.0 for the best residue at each position
# HLA B*5801 = HLA B*5801 (Homo sapiens, UniProt P01889, A329T/C349S/D201E/D98Y/E176V/E187L/E204Q/E69T/G107R/I218V/I90N/K202T/L105A/L119I/N104I/N87E/Q89R/Q94S/R106L/R155S/R180L/R86G/S101N/S121R/S35A/S48A/T118I/V127L/V306I/V36M/Y140S/Y91M); type: binding
# HLA B*5401 = HLA B*5401 (Homo sapiens, UniProt P01889, A329T/C349S/D138N/D201E/E176V/E187T/E204Q/E69G/I76V/K202T/L119W/R155S/R180L/S121T/S35A/S48A/V127L/V306I/V36M/Y140L); type: binding
# HLA B*0801 = HLA B*0801 (Homo sapiens, UniProt P01889, A93T/A95T/D138N/E176V/E187T/K202T/Q94N/R180D/S35A/V36M/Y33D/Y91F); assay: biochemical; type: binding
# HLA B*5301 = HLA B*5301 (Homo sapiens, UniProt P01889, A329T/A93T/A95T/C349S/D201E/D98Y/E176V/E187L/E204Q/E69T/G107R/I218V/K202T/L105A/L119I/N104I/Q94N/R106L/R155S/R180L/S101N/S121R/S35A/S48A/T118I/V127L/V306I/V36M/Y140S/Y91F); type: binding
# H-2 D^b = H-2 D^b (Mus musculus, UniProt P01899); type: binding
# HLA A*3001 = HLA A*3001 (Homo sapiens, UniProt P04439, D140H/D185E/E176W/F33S/G80R/H175R/K168Q/R138E/R41S); assay: biochemical; type: binding
# HLA B*1501 = HLA B*1501 (Homo sapiens, UniProt P01889, A329T/A93T/A95T/C349S/D201E/D98Y/E187L/E204Q/E69M/E70A/K202T/N87E/Q94N/R155S/R180W/S121R/S35A/S48A/V306I/V36M/Y140S/Y91S); assay: biochemical; type: binding
# HLA A*3201 = HLA A*3201 (Homo sapiens, UniProt P04439, A270S/D101S/D185E/E176V/E277Q/F133L/G103R/G107R/G231S/H175R/I121M/I218V/I322F/K168Q/L105A/L300P/L318F/M331R/P208A/P217A/Q94H/R106L/R138Q/S129P/T104I/T323A/T345S/V100E/V321M/V358M); assay: biochemical; type: binding
# HLA B*5802 = HLA B*5802 (Homo sapiens, UniProt P01889, A329T/C349S/D201E/D98Y/E176V/E187L/E204Q/E69T/G107R/I218V/I90N/K202T/L105A/N104I/N87E/Q89R/Q94S/R106L/R155S/R180L/R86G/S101N/S121W/S35A/S48A/V127L/V306I/V36M/Y140S/Y91M); type: binding
# HLA B*3501 = HLA B*3501 (Homo sapiens, UniProt P01889, A329T/A93T/A95T/C349S/D201E/D98Y/E176V/E187L/E204Q/E69T/I218V/K202T/L119I/Q94N/R155S/R180L/S121R/S35A/S48A/T118I/V127L/V306I/V36M/Y140S/Y91F); type: binding
# HLA B*5101 = HLA B*5101 (Homo sapiens, UniProt P01889, A329T/A93T/A95T/C349S/D138N/D201E/D98Y/E187L/E204Q/E69T/G107R/I218V/K202T/L105A/L119W/N104I/Q94N/R106L/R155S/R180L/S101N/S121T/S35A/S48A/V306I/V36M/Y195H/Y91F); type: binding
# HLA B*0702 = HLA B*0702 (Homo sapiens, UniProt P01889); type: binding; conditions: positional scanning combinatorial 9-mer library; normalized to 1.0 for the best residue at each position
# H-2 K^k = H-2 K^k (Mus musculus, UniProt P04223); type: binding
# Chain of H-2 K^k (P01887 21-119): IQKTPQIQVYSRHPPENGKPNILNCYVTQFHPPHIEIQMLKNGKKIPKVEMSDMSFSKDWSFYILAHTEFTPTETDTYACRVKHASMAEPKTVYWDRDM
# Chain of H-2 K^k (P04223 22-369): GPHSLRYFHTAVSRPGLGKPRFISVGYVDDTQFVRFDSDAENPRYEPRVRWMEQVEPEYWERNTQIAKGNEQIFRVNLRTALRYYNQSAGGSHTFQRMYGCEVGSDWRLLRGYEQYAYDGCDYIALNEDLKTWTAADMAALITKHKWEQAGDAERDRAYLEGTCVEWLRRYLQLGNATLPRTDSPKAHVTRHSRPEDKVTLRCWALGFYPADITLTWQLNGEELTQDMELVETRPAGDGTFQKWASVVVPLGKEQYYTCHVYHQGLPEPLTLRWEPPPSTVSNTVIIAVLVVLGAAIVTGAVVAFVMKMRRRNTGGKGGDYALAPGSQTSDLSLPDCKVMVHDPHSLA
# Chain of H-2 D^b (P01887 21-119): as the sequence (P01887 21-119) above
# Chain of H-2 D^b (P01899 25-362): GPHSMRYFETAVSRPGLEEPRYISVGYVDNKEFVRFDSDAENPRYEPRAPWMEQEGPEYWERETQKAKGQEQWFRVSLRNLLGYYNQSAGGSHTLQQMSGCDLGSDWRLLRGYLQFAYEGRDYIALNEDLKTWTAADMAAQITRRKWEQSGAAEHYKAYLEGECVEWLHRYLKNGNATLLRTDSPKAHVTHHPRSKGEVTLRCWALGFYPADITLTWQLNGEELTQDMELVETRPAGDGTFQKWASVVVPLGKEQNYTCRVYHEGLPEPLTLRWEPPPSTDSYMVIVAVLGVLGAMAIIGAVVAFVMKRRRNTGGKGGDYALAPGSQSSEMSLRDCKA
# Chain of H-2 D^d (P01900 whole entry, looked up): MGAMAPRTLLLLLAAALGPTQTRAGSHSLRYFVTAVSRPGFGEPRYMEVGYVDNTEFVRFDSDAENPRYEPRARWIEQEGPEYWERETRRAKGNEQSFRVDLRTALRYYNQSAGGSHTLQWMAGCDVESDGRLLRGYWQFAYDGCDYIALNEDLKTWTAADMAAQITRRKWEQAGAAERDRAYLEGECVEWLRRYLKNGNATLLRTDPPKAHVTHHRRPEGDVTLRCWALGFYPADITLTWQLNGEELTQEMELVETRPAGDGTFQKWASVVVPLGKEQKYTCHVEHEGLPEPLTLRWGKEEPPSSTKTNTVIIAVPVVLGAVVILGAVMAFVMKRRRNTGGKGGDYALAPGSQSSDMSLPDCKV
Sequence,"Normalized average relative binding affinity (ARB), HLA B*2705 (HLA B*2705)","Normalized average relative binding affinity (ARB), H-2 Dd (H-2 D^d)","Normalized average relative binding affinity (ARB), HLA B*1503 (HLA B*1503)","Normalized average relative binding affinity (ARB), HLA A*6802 (HLA A*6802)","Normalized average relative binding affinity (ARB), HLA A*0201 (HLA A*0201)","Normalized average relative binding affinity (ARB), HLA B*5801 (HLA B*5801)","Normalized average relative binding affinity (ARB), HLA B*5401 (HLA B*5401)","Normalized average relative binding affinity (ARB), HLA B*0801 (HLA B*0801)","Normalized average relative binding affinity (ARB), HLA B*5301 (HLA B*5301)","Normalized average relative binding affinity (ARB), H-2 Db (H-2 D^b)","Normalized average relative binding affinity (ARB), HLA A*3001 (HLA A*3001)","Normalized average relative binding affinity (ARB), HLA B*1501 (HLA B*1501)","Normalized average relative binding affinity (ARB), HLA A*3201 (HLA A*3201)","Normalized average relative binding affinity (ARB), HLA B*5802 (HLA B*5802)","Normalized average relative binding affinity (ARB), HLA B*3501 (HLA B*3501)","Normalized average relative binding affinity (ARB), HLA B*5101 (HLA B*5101)","Normalized average relative binding affinity (ARB), HLA B*0702 (HLA B*0702)","Normalized average relative binding affinity (ARB), H-2 Kk (H-2 K^k)"
XXXAXXXXX [3064.0061],0.28,0.52,0.41,0.24,0.90,0.46,0.41,0.40,0.36,0.69,0.48,0.40,0.38,0.51,0.42,0.39,0.23,0.63
NXXXXXXXX [3064.0012],0.095,0.19,0.14,0.24,0.067,0.056,0.12,0.43,0.027,0.31,0.065,0.22,0.13,0.063,0.29,0.19,0.15,0.80
XXNXXXXXX [3064.0052],0.23,0.0028,0.24,0.27,0.16,0.88,0.14,0.11,0.22,0.25,0.017,0.46,0.76,0.098,0.32,0.27,0.077,0.40
XYXXXXXXX [3064.0040],0.0026,0.013,0.017,0.017,0.0078,0.029,0.0039,0.066,0.0053,0.071,0.46,0.028,0.032,0.030,0.012,0.053,0.0050,0.0099
XSXXXXXXX [3064.0036],0.012,0.022,0.13,0.27,0.0092,1.0,0.050,0.13,0.031,0.80,0.38,0.59,0.21,1.0,0.059,0.10,0.0043,0.014
SXXXXXXXX [3064.0016],0.19,0.24,0.50,0.41,0.10,0.16,0.056,1.0,0.055,0.12,0.32,0.42,0.39,0.097,0.10,0.051,0.35,0.54
